Source: ChEMBL document CHEMBL1201862, “PubChem BioAssay data set” (2004)
One block for each compound: values may come before it. Active and inactive are the calls of the source. Rule as the data show it, for most assays here: actives have a measured EC50 and inactives only a lower limit.

What was measured:
[1] = test system: INS1; assay: beta cell apoptosis inhibitors, cytokine rescue, dose response, luminescence, retest (AID 449756); assay type: functional, cell-based; conditions: Rattus norvegicus;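 also: cell death triggered by IL-1 beta plus TNF-alpha plus IFN-gamma mixture; protective hits raise ATP signal compared with cytokine alone wells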
[2] = target: Transitional endoplasmic reticulum ATPase (Homo sapiens, UniProt P55072, C522A); assay: C522A mutant p97 ATPase inhibitors, dose response, counter-screen for p97 inhibitor project, biochemical, luminescence (AID 1544)
[3] = test system: BJ; assay: cytotoxicity toward BJ-TERT-LT-ST fibroblasts, dose response, cell-based, RAS-independent, luminescence (AID 1935); assay type: functional; conditions: Homo sapiens;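 also: BJ fibroblasts immortalized with TERT plus LT and ST oncogenes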
[4] = test system: BJ; assay: cytotoxicity toward BJ-TERT fibroblasts, dose response, cell-based, RAS-independent, luminescence (AID 1933); assay type: functional; conditions: Homo sapiens
[5] = test system: Streptococcus sp. 'group A'; assay: growth inhibition of control SK(-) GAS strain, dose response, counter-screen for streptokinase expression inhibitor project, luminescence, kanamycin, BacTiterGlo, confirmation (AID 1900); assay type: functional, organism-based
[6] = test system: Streptococcus; assay: Group A Streptococcus viability loss, dose response, counter-screen for streptokinase expression inhibitor project, luminescence, BacTiterGlo (AID 1915); assay type: functional, organism-based;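 also: potency for reduction of bacterial viability or growth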
[7] = target: T1, Tyrosyl-DNA phosphodiesterase 2 (Homo sapiens, UniProt O95551); assay: human TDP2 enzyme inhibitors, dose response, biochemical, epi absorbance, IC50 (AID 743297)
T1 sequence (O95551 whole entry): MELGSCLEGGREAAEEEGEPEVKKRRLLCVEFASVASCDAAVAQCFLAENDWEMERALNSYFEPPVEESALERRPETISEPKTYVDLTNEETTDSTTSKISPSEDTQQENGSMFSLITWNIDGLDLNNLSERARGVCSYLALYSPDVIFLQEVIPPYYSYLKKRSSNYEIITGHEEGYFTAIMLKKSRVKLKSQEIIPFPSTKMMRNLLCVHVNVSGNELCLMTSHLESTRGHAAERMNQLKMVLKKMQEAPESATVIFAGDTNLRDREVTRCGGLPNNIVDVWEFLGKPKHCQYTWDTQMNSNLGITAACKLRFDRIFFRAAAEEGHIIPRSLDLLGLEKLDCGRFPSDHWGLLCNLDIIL

[8] = cytotoxicity toward DRD oncogenic fibroblasts, dose response, cell-based, non-viral oncogenic, luminescence (AID 1934); assay type: functional; conditions: Homo sapiens
[9] = target: T2, Heat shock factor protein 1 (Mus musculus, UniProt P38532); assay: HSF1 potentiators in luciferase reporter cells, confirmation, cell-based, NIH3T3, luminescence, dose retest (AID 435004); assay type: functional;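 also: stress induced by proteasome inhibitor MG132 added 30 min after compound; luciferase reporter driven by HSF1 response element in NIH3T3 cells; actives raise luminescence as potentiators of the MG132 stress response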
T2 sequence (P38532 whole entry): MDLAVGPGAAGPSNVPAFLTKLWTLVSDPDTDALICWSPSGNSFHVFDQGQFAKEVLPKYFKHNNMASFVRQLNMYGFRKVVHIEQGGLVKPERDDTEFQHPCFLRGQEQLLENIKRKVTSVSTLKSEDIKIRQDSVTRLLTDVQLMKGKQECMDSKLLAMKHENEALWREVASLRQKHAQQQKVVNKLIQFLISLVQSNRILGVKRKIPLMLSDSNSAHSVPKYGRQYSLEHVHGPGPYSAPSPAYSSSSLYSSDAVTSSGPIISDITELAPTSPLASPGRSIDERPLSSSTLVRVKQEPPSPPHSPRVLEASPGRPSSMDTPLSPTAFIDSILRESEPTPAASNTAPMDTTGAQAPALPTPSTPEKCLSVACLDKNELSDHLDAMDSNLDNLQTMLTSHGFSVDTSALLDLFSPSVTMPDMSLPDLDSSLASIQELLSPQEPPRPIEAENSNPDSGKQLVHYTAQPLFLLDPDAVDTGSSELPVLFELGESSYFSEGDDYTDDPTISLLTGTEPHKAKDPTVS

[10] = target: T3, Histone-lysine N-methyltransferase NSD2 (Homo sapiens, UniProt O96028); assay type: biochemical
T3 sequence (O96028 whole entry): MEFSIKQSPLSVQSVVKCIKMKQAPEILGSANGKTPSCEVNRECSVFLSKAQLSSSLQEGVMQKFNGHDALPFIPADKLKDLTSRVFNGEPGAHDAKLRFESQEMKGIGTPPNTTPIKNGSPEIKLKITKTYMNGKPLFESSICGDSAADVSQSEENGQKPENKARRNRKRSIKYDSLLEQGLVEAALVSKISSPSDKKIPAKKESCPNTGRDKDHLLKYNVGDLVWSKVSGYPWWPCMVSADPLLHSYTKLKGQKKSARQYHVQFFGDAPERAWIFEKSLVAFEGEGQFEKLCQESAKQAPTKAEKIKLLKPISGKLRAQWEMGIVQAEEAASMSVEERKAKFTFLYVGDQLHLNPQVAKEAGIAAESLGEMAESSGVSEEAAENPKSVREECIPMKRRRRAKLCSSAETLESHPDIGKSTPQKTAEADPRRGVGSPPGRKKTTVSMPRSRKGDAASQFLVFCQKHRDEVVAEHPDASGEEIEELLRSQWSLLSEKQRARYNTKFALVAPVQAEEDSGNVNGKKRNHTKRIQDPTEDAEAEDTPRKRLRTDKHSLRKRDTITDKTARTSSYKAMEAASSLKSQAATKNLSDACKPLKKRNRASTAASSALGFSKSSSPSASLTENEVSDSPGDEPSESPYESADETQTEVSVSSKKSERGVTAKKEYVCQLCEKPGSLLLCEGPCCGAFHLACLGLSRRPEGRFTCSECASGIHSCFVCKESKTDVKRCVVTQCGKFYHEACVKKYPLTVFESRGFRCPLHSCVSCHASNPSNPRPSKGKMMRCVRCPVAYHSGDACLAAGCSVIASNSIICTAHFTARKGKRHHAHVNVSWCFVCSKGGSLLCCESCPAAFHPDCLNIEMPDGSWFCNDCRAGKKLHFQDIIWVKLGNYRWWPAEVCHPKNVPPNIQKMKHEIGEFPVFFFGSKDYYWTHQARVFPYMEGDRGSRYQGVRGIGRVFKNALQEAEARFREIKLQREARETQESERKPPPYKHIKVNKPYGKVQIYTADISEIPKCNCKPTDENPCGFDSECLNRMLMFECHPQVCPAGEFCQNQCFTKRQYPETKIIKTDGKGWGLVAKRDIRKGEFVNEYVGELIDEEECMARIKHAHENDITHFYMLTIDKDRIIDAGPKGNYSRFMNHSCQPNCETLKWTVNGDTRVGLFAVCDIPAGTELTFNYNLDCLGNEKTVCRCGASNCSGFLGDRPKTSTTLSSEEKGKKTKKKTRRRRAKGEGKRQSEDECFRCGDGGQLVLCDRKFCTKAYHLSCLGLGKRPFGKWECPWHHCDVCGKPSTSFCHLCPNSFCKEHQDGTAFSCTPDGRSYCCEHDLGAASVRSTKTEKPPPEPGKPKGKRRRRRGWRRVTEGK

[11] = inhibitors of intracellular T. cruzi replication, confirmation, NIH3T3 host cells, beta-gal luminescence (AID 2044); assay type: functional, cell-based;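 also: intracellular parasites grown in NIH/3T3 mouse fibroblasts as host cells; luminescent beta-galactosidase reporter signal from transgenic T. cruzi replicating inside host cells; inhibitors lower the luminescence signal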

Transitional endoplasmic reticulum ATPase, sequence (P55072 2-806 C522A limits assumed): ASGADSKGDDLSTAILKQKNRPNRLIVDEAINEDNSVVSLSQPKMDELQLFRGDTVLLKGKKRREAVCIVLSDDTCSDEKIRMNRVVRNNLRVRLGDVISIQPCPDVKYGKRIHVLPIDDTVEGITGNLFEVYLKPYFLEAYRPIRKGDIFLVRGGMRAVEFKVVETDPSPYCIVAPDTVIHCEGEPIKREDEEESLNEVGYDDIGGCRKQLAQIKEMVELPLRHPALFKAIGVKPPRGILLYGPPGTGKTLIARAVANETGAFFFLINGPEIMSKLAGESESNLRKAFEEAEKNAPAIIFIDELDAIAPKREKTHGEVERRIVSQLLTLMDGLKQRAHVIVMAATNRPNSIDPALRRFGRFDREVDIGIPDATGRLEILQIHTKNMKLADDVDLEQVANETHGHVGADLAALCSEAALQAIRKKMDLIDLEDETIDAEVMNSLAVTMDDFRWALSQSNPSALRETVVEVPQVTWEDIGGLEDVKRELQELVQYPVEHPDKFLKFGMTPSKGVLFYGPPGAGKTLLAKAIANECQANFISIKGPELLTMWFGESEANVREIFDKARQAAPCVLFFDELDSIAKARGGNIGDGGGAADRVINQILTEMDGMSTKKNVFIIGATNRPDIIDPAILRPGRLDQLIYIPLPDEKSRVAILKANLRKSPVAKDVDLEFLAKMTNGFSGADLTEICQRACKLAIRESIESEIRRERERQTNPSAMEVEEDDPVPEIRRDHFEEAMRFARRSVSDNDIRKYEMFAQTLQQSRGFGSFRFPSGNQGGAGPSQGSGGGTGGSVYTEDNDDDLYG

Structure (SMILES): O=C1C(=O)c2ccccc2-c2ccccc21 [9,10-PHENANTHRENEQUINONE]
AC50 [1]: 1.01 µM (active)
IC50 [2]: > 50 µM (not active)
EC50 [3]: 1.63 µM (inconclusive)
EC50 [4]: 1.96 µM (active)
EC50 [5]: 1.33 µM (active)
EC50 [6]: 2.3 µM (active)
IC50 [7]: 1.91 µM (active)
EC50 [8]: 4.95 µM (inconclusive)

Structure (SMILES): COCCCNC(=O)c1ccc2c3c(onc13)-c1ccccc1C2=O
EC50 [3]: 7.47 µM (active)
EC50 [4]: 8.03 µM (inconclusive)
EC50 [9]: 3.48 µM (active)
AC50 [10]: > 20 µM (inactive)
EC50 [8]: 8.59 µM (active)

Structure (SMILES): CCC(=O)OCCNc1cc(Sc2nccn2C)c2nonc2c1[N+](=O)[O-]
EC50 [9]: 4.5 µM (active)
EC50 [11]: 1.97 µM (active)

IC50 [2]: > 50 µM (not active)
IC50 [7]: > 4.76 µM (active)
AC50 [10]: 2.68 µM (active)
Structure (SMILES): CCCCn1c(NC(=O)c2ccccc2Cl)c(C#N)c2nc3ccccc3nc21

Structure (SMILES): O=C1C=C(N(CCO)Cc2ccccc2)c2ccccc2C1=O
AC50 [10]: 1.2 µM (active)
EC50 [11]: > 30 µM (not active)

Structure (SMILES): CCOC(=O)C1=C(c2ccc(OC)cc2)C(=O)c2ccccc2C1=O
AC50 [1]: 2.2 µM (active)
EC50 [5]: 1.51 µM (active)
EC50 [6]: 6.2 µM (active)
EC50 [9]: 52.2 µM (active)
